In a melting point compilation (Tetko et al.):

| SMILES | melting point |
| --- | --- |
| CCCCCCCCCCCCCCCCOc1ccc(N)cc1 | 60 °C |
| O=C(O)CCC(=O)c1ccc(Cl)cc1 | 129 to 132 °C |
| COP(=S)(OC)Oc1ccc([N+](=O)[O-])c(Cl)c1 | 21 °C |
| CC12CCCCC1CCC1C2CCC2(C)C1CCC2(O)C#CCl (stereo not drawn) | 163 °C |
| CC(=O)SCC(Cc1ccccc1)C(=O)NCC(=O)OCc1ccccc1 (stereo not drawn) | 89 °C |
| C[Si](C)(C)N([Si](C)(C)C)[Si](C)(C)C | 67 to 69 °C |
| COc1ccccc1CC(=O)O | 124 °C |
| c1ccc(Oc2nc(-c3ccccc3)nc3nc4ccccc4n23)cc1 | 247 °C |
| FC(F)(F)S(F)(F)(F)(F)F | -87 °C |
| ON=Cc1c(F)cccc1Cl | 133 °C |
| O=C(Nc1nc(-c2ccc(Br)cc2)cs1)c1ccccc1 | 115 °C |
| NC(=O)CNCCS(=O)(=O)O | 270 to 295 °C |
| C[C@]1(O)C#CCCCCCC#C[C@@](C)(O)CC1 | 100 °C |
| O=C(OCC(COC(=O)c1cccnc1)(COC(=O)c1cccnc1)COC(=O)c1cccnc1)c1cccnc1 | 162 °C |
| O=C(O)c1csc(-c2ccc3c(c2)CCO3)n1 | 210 to 214 °C |
| Cc1nc(C(=O)O)c(C)o1 | 232 to 233 °C |
| N#CC(O)c1ccccc1 (stereo not drawn) | -10 °C |
| O=C(CC(C(=O)c1ccccc1)C(CC(=O)c1ccccc1)C(=O)c1ccccc1)c1ccccc1 (stereo not drawn) | 169 °C |
| N#Cc1c(F)cc(F)cc1F | 57 to 61 °C |
| CCSC(SCC)=C1CCCC(=C(SCC)SCC)C1=C(C#N)C#N | 100 to 102 °C |
| Cc1ccc(O)c(C(O)c2ccccc2)c1 (stereo not drawn) | 103 °C |
| Brc1cccc(Cn2ccnc2)c1 | 62 to 70 °C |
| NNC(=S)Nc1ccc(C(F)(F)F)cc1 | 167 °C |
| COc1c(C(C)(C)C(C)C)c(OC(C)=O)c(OC(C)=O)c2ccccc12 | 145 °C |
| Cc1ccc(S(=O)(=O)c2ncsc2SCc2ccc(Cl)cc2)cc1 | 151 to 153 °C |

| SMILES | melting point |
| --- | --- |
| O=C1OCCOC(=O)c2ccccc2C(=O)OCCOC(=O)c2ccccc21 | 192 °C |
| Cc1nccc2c1[nH]c1ccccc12 | 236 °C |
| O=c1[nH]ccc(=S)[nH]1 | 295 °C |
| O=C(Nc1cccc2ccccc12)C(C(F)(F)F)C(F)(F)F | 224 °C |
| NC(=S)c1ccc(-c2csnn2)cc1 | 223 to 228 °C |
| O=C(CC(C(=O)c1ccccc1)c1ccccc1)c1ccccc1 (stereo not drawn) | 128 °C |
| COc1cc(C=C2C(=O)NN=C2c2c(O)c3ccccc3n(C)c2=O)cc(OC)c1OC | 196 °C |
| COc1ccccc1C(O)=C1C(=O)CN(C(C)C)C1=O | 99 to 100 °C |
| CC12CCC(O)CC1=CCC1C2CCC2(C)C1CCC2(O)C#Cc1ccccc1 (stereo not drawn) | 162 to 165 °C |
| CCCOC1CCC2C3CCC4=CC(O)CCC4(C)C3CCC12C (stereo not drawn) | 123 to 127 °C |
| CCCCCCCCCCCCCCCCCC(C)C | 18 °C |
| CC(=O)Oc1ccc(Br)cc1 | 21 °C |
| Cc1c(-c2ccccc2)oc(-c2ccccc2)c(C)c1=O | 144 °C |
| COc1cc2c(cc1OC)C1(O)C(=O)c3ccc4c(c3OC1CO2)C=CC(C)(C)O4 (stereo not drawn) | 198 °C |
| O=C(c1c(F)c(F)c(F)c(F)c1F)n1ccnc1 | 56 °C |
| O=C1C(Br)=C(Br)C(=O)C(Br)=C1Br | 292 to 294 °C |
| O=C(Cl)c1ccc(N=Nc2ccccc2)cc1 | 93 to 97 °C |
| CC(=O)Nc1ccccc1N | 135 °C |
| O=C(O)c1n[nH]c2ccc(Br)cc12 | 290 to 292 °C |
| O=C1OC(=O)c2c(Br)c(Br)c(Br)c(Br)c21 | 275 °C |
| CCNc1cc2oc(=O)cc(C(F)(F)F)c2cc1C | 184 °C |
| N#Cc1ccc(Cl)c(Cl)c1 | 72 °C |
| CC1(C)CCC(O)CC1 | 28 to 30 °C |
| CC(=O)NC1C(OCc2ccccc2)OC(COC(c2ccccc2)(c2ccccc2)c2ccccc2)C(O)C1O (stereo not drawn) | 102 to 107 °C |
| COc1ccc(OC)c(NC(N)=S)c1 | 160 °C |

| SMILES | melting point |
| --- | --- |
| O=C1OC2(CCCCC2)OC1c1ccccc1 (stereo not drawn) | 87 °C |
| Cc1ccc2cccc(Cl)c2n1 | 67 °C |
| COc1cc(C(=O)O)cc(Cl)n1 | 214 to 216 °C |
| CC1=C(C)C([Si](C)(C)C2C(C)=C(C)C(C)=C2C)C(C)=C1C | 65 to 68 °C |
| Cn1c(S)nnc1CC#N | 188 to 190 °C |
| CC(=O)OCCOc1cc(OCCOC(C)=O)c([N+](=O)[O-])cc1[N+](=O)[O-] | 91 °C |
| CCN=C=S | -5.9 °C |
| Cc1ccc2sc(C(=O)Cl)cc2c1 | 58 to 60 °C |
| COc1cc2c(cc1OC)C(C#N)N(C(=O)c1ccccc1)CC2 (stereo not drawn) | 214 to 217 °C |
| Cn1c(=O)c(C2=NNC(=O)C2=C2c3ccccc3-c3ccccc32)c(O)c2ccccc21 | 295 °C |
| O=C(CCCl)c1ccc(F)cc1 | 47.5 °C |
| CC1(C)C2CCC1(C)C(C(=O)O)C2CC(O)c1ccccc1 (stereo not drawn) | 119 °C |
| Cc1c([N+](=O)[O-])cc2c(c1[N+](=O)[O-])C(C)(C)CC2(C)C | 132 °C |
| CC(=O)C12OC(C)(c3ccccc3)OC1CC1C3CCC4=CC(=O)CCC4(C)C3CCC12C (stereo not drawn) | 150 °C |
| Nc1c(Cl)cc(C(F)(F)F)cc1[N+](=O)[O-] | 66 to 68 °C |
| Cc1cncc(Oc2ccc(Br)cc2)n1 | 58.5 to 60 °C |
| CCCCCCCCCCCCCCCC(=O)Oc1ccc(N=Cc2cccnc2)cc1 | 87.6 °C |
| C=C(C)CCCCCCCCCCCC | -15 °C |
| CNC(=O)c1ccccc1N | 75 to 76 °C |
| O=C(O)C=CCCCCCCCCC(=O)O | 166 °C |
| CCCC(C1CCCCC1)C1CCCCC1 | -10.5 °C |
| O=[N+]([O-])c1cccc(-c2nnc3n2NCS3)c1 | 200 °C |
| C#CCCCCCC | -60 °C |
| Nc1c(C(F)(F)F)cc(Cl)nc1Cl | 50 to 51 °C |
| CC(=O)c1sc2ccccc2c1C | 78 °C |

| SMILES | melting point |
| --- | --- |
| O=C(O)c1ccc(OCC(F)(F)F)nc1 | 174 °C |
| O=C(c1ccccc1)N(O)c1ccccc1 | 119 to 123 °C |
| O=C1CCCC(Cl)(Cl)C1(O)O | 120 to 124 °C |
| CC(C)(C)c1cc([N+](=O)[O-])c2cc(C(C)(C)C)cc([N+](=O)[O-])c2c1 | 198 to 200 °C |
| Cc1cc(OC(=O)N(C)C)nn1C(=O)N(C)C | 69.5 °C |
| CCCCN(CCN(CCCC)C(=O)N1CCOCC1)C(=O)N1CCOCC1 | 41.5 °C |
| C=CCC1(CC(C)O)C(=O)NC(=O)NC1=O (stereo not drawn) | 158 °C |
| CC1CNC(C(C2=NCC(C)N2)C2=NCC(C)N2)=N1 (stereo not drawn) | 241 to 242 °C |
| ON(Cc1c(F)cccc1Cl)Cc1c(F)cccc1Cl | 169 to 171 °C |
| Oc1cccc2[nH]c3ccccc3c12 | 169 to 173 °C |
| CN(C)CCC=C1c2ccccc2Sc2ccc(Cl)cc21 | 97.5 °C |
| Cn1c(=O)c2c(ncn2CCOC(=O)c2cccnc2)n(C)c1=O | 152 °C |
| Nc1cc(Br)ccn1 | 146 °C |
| FC(F)(F)c1cccc(Cl)n1 | 33 to 35 °C |
| Brc1cccc(Oc2ccccc2)c1 | < 20 °C |
| CCCCCCCCCCCCCCCCCN | 49 °C |
| Cc1nc2cc3ccccc3cc2o1 | 87 °C |
| c1ccc(CC(c2ccccc2)c2ccccc2)cc1 | 52 °C |
| CC(C)OC(=O)COc1ccc(Cl)cc1Cl | 5 °C |
| O=C(O)c1cc(I)ccc1O | 196 to 201 °C |
| CC(=O)Nc1cc(NC(C)=O)c(C=Cc2ccccc2)c([N+](=O)[O-])c1C=Cc1ccccc1 | 276 °C |
| Cc1cncc(N2CCC(CO)CC2)n1 | 103 to 107 °C |
| Cc1ccc2ccc3ccc(C)cc3c2c1 | 145 °C |
| OC1C=C2CCN3Cc4cc5c(cc4C(C1O)C23)OCO5 (stereo not drawn) | 280 °C |
| O=C(O)C1c2ccccc2C(=O)N(Cc2ccc(F)cc2)C1c1ccncc1 (stereo not drawn) | 243 to 245 °C |

| SMILES | melting point |
| --- | --- |
| Cc1ccc(C(=O)OC2CC(C#N)OC2OC(=O)c2ccc(C)cc2)cc1 (stereo not drawn) | 110 to 111 °C |
| FC(F)(F)c1cnc(N2CCNCC2)c(Cl)c1 | 65 to 67 °C |
| CC(C)[C@H](NC(=O)OCc1ccccc1)C(=O)O | 60 °C |
| CC12CCC(=O)C=C1CCC1C2C(O)CC2(C=O)C(C(=O)CO)CCC12 (stereo not drawn) | 167 °C |
| OCc1ccc(-n2cncn2)cc1 | 124 to 125 °C |
| CCCCCCCCCCCCOc1ccc(C=O)cc1OCCCCCCCCCCCC | 70 to 73 °C |
| CCOC(=O)C1(S(=O)(=O)c2ccc(C)cc2)CC1 | 75.5 °C |
| CCCCCCCCCCCC(=O)OCCOC(=O)CCCCCCCCCCC | 56.6 °C |
| C=C(CC(=O)O)C(=O)O | 175 °C |
| Cc1ccc(NC(=O)C(F)(F)C(F)(F)C(F)(F)C(F)(F)C(F)(F)C(F)(F)C(F)(F)C(F)(F)F)c(C)c1 | 83 °C |
| CC(=O)NC1=NC(=O)C(=Cc2coc3ccc(Cl)cc3c2=O)N1C | 276 °C |
| O=CC(O)C1OC(=O)C(O)C1O (stereo not drawn) | 178 °C |
| CCOC1OC2C(CO)OC(n3cnc4c(N)ncnc43)C2O1 (stereo not drawn) | 228 to 231 °C |
| O=C(Cl)c1ccccc1 | -1 °C |
| O=C1c2ccccc2C(=O)c2c(Br)cccc21 | 186 °C |
| COc1cc(C=CC(=O)O)ccc1OC(C)=O | 195 °C |
| Cc1ccc(C=C2C(=O)OC(C)(C)OC2=O)o1 | 93 °C |
| C1CCC2OC2C1 (stereo not drawn) | -40 °C |
| CCCCCCCCCCCCCCCCOCC(O)CO (stereo not drawn) | 64 °C |
| CC(C)(C)NC(N)=O | 178 to 182 °C |
| CC(=O)CCc1ccc2c(c1)N(C(=O)c1ccccc1)C(C)CC2 (stereo not drawn) | 74 °C |
| Cc1nc(N)nc2c1c(=O)n(-c1ccccc1)c1ccccc21 | 233 °C |
| COc1cccc(C(=O)NN(C(=O)c2cc(C)cc(C)c2)C(C)(C)C)c1C | 204 °C |
